Values of other authors, collected in patent US11786460B2, “Pharmaceutical dry powder composition for inhalation comprising a thyroid hormone” (priority 2018, dated 2023).

Experiments:
[1] = mainly in the jejunum and ileum
Calu-3 cells = conditions: in vitro

- fraction absorbed after oral administration [1]: 60-80%
SMILES: N[C@@H](Cc1cc(I)c(Oc2cc(I)c(O)c(I)c2)c(I)c1)C(=O)O [levothyroxine]
- absorption from the respiratory mucosa (permeability) (Calu-3 cells): can be absorbed effectively from the respiratory mucosa
